What all share (experiment): DTP human tumour cell line panel, 48 h
The test system of test [1] is CAKI-1 renal.
Test [2] concerns HOP-92 NSCLC.
In test [3] the test system is SK-MEL-5 melanoma.
Test [4] deals with SN12C renal.
Test [5] has as its system SK-OV-3 ovarian.
Test [6] deals with OVCAR-8 ovarian.
In test [7] the test system is SF-295 CNS.
Test [8] relates to SK-MEL-2 melanoma.
Test [9] has as its system LOX IMVI melanoma.
Test [10] deals with MDA-MB-435.
Test [11] concerns SF-268 CNS.
Test [12] concerns HCC-2998 colon.
Test [13] concerns SF-539 CNS.
Test [14] concerns U251 CNS.
The test system of test [15] is MCF7 breast.
Test [16] has as its system RPMI-8226 leukemia.
Test [17] has as its system HCT-116 colon.

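Step 1: Grow cells in 96-well plates. Step 2: Expose to compound for 48 hours at 5 concentrations. Step 3: Interpolate endpoints linearly; if unreached, use highest concentration. TGI: concentration producing complete growth inhibition.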

Broadly, the TGI is the concentration giving total growth inhibition. Low readings indicate greater sensitivity of the cells, high ones lower sensitivity of the cells. As for `COc1ccc2c(c1)-c1nc(=S)n(CCCN(C)C)c3ccc([N+](=O)[O-])c(c13)N2`, the concentration for total growth inhibition (TGI) amounted to 19.8 µM in test [1]; 20.7 µM in test [2]; 10.1 µM in test [3]; 10.3 µM in test [4]; 19.4 µM in test [5]; 6.5 µM in test [6]. Besides, the TGI was 21.2 µM in [7]; 31.6 µM in test [8]; 4.57 µM in [9]; 16.7 µM in [10]; 21.7 µM in test [11]; 18.6 µM in test [12]. Further, the total growth inhibition concentration (TGI) turned out to be 6.08 µM in test [13]; 17.7 µM in test [14]; 3.01 µM in test [15]; 4.31 µM in test [16]; 2.93 µM in test [17].
For the compound `Cc1ccc(S(=O)(=O)c2ccsc2NC(=O)C(F)(F)F)cc1`, the total growth inhibition concentration (TGI) in [1] is 82.6 µM; in test [2], more than 100 µM; in [3], 44.4 µM; in [4], 66.8 µM; in test [5], more than 100 µM; in [6] it was more than 100 µM. Further, the TGI in test [7] is more than 100 µM; in [8], 94.7 µM; in test [9], more than 100 µM; in test [10], more than 100 µM; in test [11] it was more than 100 µM; in test [12], more than 100 µM. Moreover, the TGI was more than 100 µM in [13]; more than 100 µM in test [14]; more than 100 µM in [15]; 31 µM in test [16]; 95.3 µM in [17].
Take `COc1nc(N=P(c2ccccc2)(c2ccccc2)c2ccccc2)cc(=O)[nH]1`: the concentration for total growth inhibition (TGI) in [1], in [2], in test [3], in [4], in [5] and in [6] was more than 100 µM each time. In addition, the TGI in [7], in test [8], in [9], in test [10], in test [11] and in [12] was more than 100 µM each time. The TGI in [13], in test [14], in test [15], in [16] and in test [17] was more than 100 µM in each case.
With `Clc1ccccc1-c1nc2ccc(C34CC5CC(CC(C5)C3)C4)cc2[nH]1`, the concentration for total growth inhibition (TGI) was more than 100 µM in test [1]; 27.1 µM in test [2]; more than 100 µM in [3]; 88.5 µM in test [4]; 42.9 µM in [5]; 22.8 µM in [6]. Besides, the total growth inhibition concentration (TGI) in test [7] is 32 µM; in test [8], 40.8 µM; in [9] it was 29.8 µM; in [10], more than 100 µM; in [11], more than 100 µM; in test [12], more than 100 µM. Also, the TGI in test [14] is 20.5 µM; in test [15] it was 23.4 µM; in test [16], more than 100 µM; in [17] it was more than 100 µM.
On to `O=C(O)c1ccccc1/C=N/NC1=NCCN1`, for which the TGI in test [2] was 91.9 µM; in test [3], more than 100 µM; in [5], more than 100 µM; in [6] it was more than 100 µM; in test [7] it was more than 100 µM; in [8], more than 100 µM. The TGI in [9], in test [10], in test [11], in test [12], in test [13] and in [14] was more than 100 µM each time. Moreover, the total growth inhibition concentration (TGI) in test [15], in [16] and in test [17] was more than 100 µM in each case.
On to `CC(=N)OC1CC2CCC1(C)C2(C)C` (stereo unspecified), for which the TGI in test [1], in test [2], in test [3], in [4], in test [5] and in test [6] was more than 100 µM in each case. Further, the TGI in [7], in test [9], in test [10], in test [11], in [12] and in test [13] was more than 100 µM each time. Further, the TGI in test [14], in test [15], in [16] and in test [17] was more than 100 µM throughout.
Consider `O=C1CN(C(=O)C2CCCN2C(=O)C2CCCN2)C(=O)CN1` (stereo unspecified), for which the total growth inhibition concentration (TGI) in [1], in test [2], in [3], in [4], in [5] and in test [6] was more than 100 µM throughout. The TGI in [7], in test [9], in [10], in test [11], in [12] and in [14] was more than 100 µM in each case. Moreover, the concentration for total growth inhibition (TGI) in test [15], in test [16] and in [17] was more than 100 µM in each case.
Consider `O=[N+]([O-])c1ccc2c(c1)S(=O)(=O)N1Cc3ccccc3CCN21`, for which the TGI in test [1], in test [2], in [3], in test [4], in test [6] and in [7] was more than 100 µM each time. Moreover, the concentration for total growth inhibition (TGI) in [8], in test [9], in test [10], in test [11], in [12] and in test [13] was more than 100 µM each time. Besides, the total growth inhibition concentration (TGI) in test [14], in [15], in test [16] and in test [17] was more than 100 µM throughout.
On to `O=C(Cn1c2c(c3ccccc31)CCCC2)N1CCCC1`, for which the TGI in test [1], in [2], in [3], in test [4], in test [5] and in test [6] was more than 100 µM throughout. In addition, the concentration for total growth inhibition (TGI) in test [7], in test [8], in test [9], in test [10], in test [12] and in test [13] was more than 100 µM each time. The TGI in test [15], in [16] and in test [17] was more than 100 µM in each case.
In the case of `Nc1nc(Cl)c(CO)c(NCC2(CO)CC(CCc3ccccc3)C2)n1` (stereo unspecified), the total growth inhibition concentration (TGI) in test [1] is more than 100 µM; in [2], 73.1 µM; in test [3], 39.4 µM; in [4], more than 100 µM; in [6], 35.6 µM; in [7], more than 100 µM. Besides, the total growth inhibition concentration (TGI) in test [9] is 50.4 µM; in test [10], 26.5 µM; in test [11], more than 100 µM; in test [12] it was more than 100 µM; in test [13] it was more than 100 µM; in [14], more than 100 µM. For the same compound, the TGI in test [15] turned out to be 45.5 µM; in [16], 35.2 µM; in test [17], 31.9 µM.
For the compound `Oc1c2cc(Cl)cc1COCc1cc(Cl)cc(c1O)COCc1cc(Cl)cc(c1O)COC2`, the TGI in test [2] was 92.2 µM; in test [3], more than 100 µM; in test [5] it was more than 100 µM; in [6], 32.9 µM; in test [7] it was more than 100 µM; in [8], more than 100 µM. Moreover, the TGI in [9], in [10], in test [12], in test [14], in test [15] and in test [16] was more than 100 µM each time. Also, the total growth inhibition concentration (TGI) in test [17] is more than 100 µM.
Regarding `C[N+](C)(C)CCCSc1nc2ccccc2[nH]1`, the TGI in test [1], in test [2], in [3], in test [4], in test [5] and in test [6] was more than 100 µM throughout. Also, the concentration for total growth inhibition (TGI) in test [7], in test [8], in [9], in test [10], in test [11] and in test [12] was more than 100 µM each time. The TGI in test [14], in test [15], in test [16] and in test [17] was more than 100 µM throughout.
`CC(C)(C)C(=O)OCOP(=O)(OCOC(=O)C(C)(C)C)OCC1OC(n2ccc(=O)[nH]c2=O)C(N=[N+]=[N-])C1O` (stereo unspecified): the total growth inhibition concentration (TGI) worked out at 22.5 µM in test [1]; 5 µM in [2]; 16.8 µM in test [3]; 22 µM in test [4]; 12.9 µM in [6]; 25.4 µM in [7]. The concentration for total growth inhibition (TGI) in [9] came to 3.44 µM; in [10] it was 15.5 µM; in test [11], 17.8 µM; in test [12], 13.4 µM; in test [13], 8.88 µM; in [14], 10.5 µM. Besides, the total growth inhibition concentration (TGI) is 14.7 µM in [15], 5.22 µM in [16] and 12 µM in test [17].
Regarding `NCCCCC(NC(=O)C(N)Cc1ccc(O)cn1)C(=O)O` (stereo unspecified), the TGI in test [1], in test [2], in [3], in test [4], in test [6] and in test [7] was more than 100 µM throughout. The TGI in test [9], in test [10], in test [11], in [12], in test [13] and in test [14] was more than 100 µM each time. Further, the TGI in [15], in [16] and in test [17] was more than 100 µM each time.
As for `N#Cc1c(=O)n(-c2ccccc2)c(O)c2c(N)n[nH]c12`, the TGI in [1], in test [2], in [3], in [4], in test [5] and in [6] was more than 100 µM each time. Moreover, the TGI in [8], in [9], in [10], in test [11], in test [12] and in test [13] was more than 100 µM in each case. Further, the TGI in test [14], in test [15], in test [16] and in [17] was more than 100 µM each time.
Turning to `C/C(Cl)=N/OC(=O)Nc1ccc(S(N)(=O)=O)c(C)c1`, the TGI is 3.23 µM in [1]; 4.7 µM in test [2]; 26.1 µM in test [3]; 26.8 µM in [4]; more than 58.3 µM in test [5]; more than 56.2 µM in test [6]. In addition, the TGI in test [7] is 45.3 µM; in [8], 33.5 µM; in test [9], 6.19 µM; in [10] it was 29.6 µM; in test [11], more than 61.3 µM; in test [12], 32.7 µM. The TGI in test [14] was 33.7 µM; in test [15] it was 29.1 µM; in [16], 6.49 µM; in test [17], 25 µM.
Regarding `CC(C)(C)OC(=O)CN1C(=O)CC1CC(=O)c1ccccc1` (stereo unspecified), the concentration for total growth inhibition (TGI) is 49.4 µM in [1]; more than 100 µM in test [2]; 33.1 µM in test [3]; 51.1 µM in [4]; 32.6 µM in test [6]; 73.8 µM in test [7]. In addition, the total growth inhibition concentration (TGI) in [8] came out at 32.2 µM; in [9] it was 31.3 µM; in [10], 41.2 µM; in test [11], 37.7 µM; in test [12], 63.2 µM; in [13], 34.9 µM. In addition, the TGI stood at 29.4 µM in test [14], 36.1 µM in test [15], 15.3 µM in test [16] and 49.7 µM in test [17].
As for `O=c1[nH]nc(-c2ccccc2)n1-c1ccncc1`, the concentration for total growth inhibition (TGI) in [1], in [2], in test [3], in [4], in [6] and in test [7] was more than 100 µM in each case. In addition, the total growth inhibition concentration (TGI) in test [9], in test [10], in [11], in test [12], in test [13] and in test [14] was more than 100 µM throughout. In addition, the TGI in test [15], in [16] and in test [17] was more than 100 µM in each case.

These data come from PubChem BioAssay (NCI).
